From patent US12727608B2, “Stable liquid animal feed ingredient” (PURAC BIOCHEM B.V., priority 2020, dated 2026)

Experiments:
Format in all cases: cell-based
Details in all cases: Experiment 2; 72 hours at 30° C.
[1] = system: Clostridium perfringens ATCC 13124
[2] = system: Streptococcus suis DSM 9682; test: MIC determination (Bioscreen growth)
[3] = system: Streptococcus suis DSM 28762; test: MIC determination (Bioscreen growth)

Measured: MIC value

CC(O)CO (stereo not drawn) [MPG, 1,2-propanediol]
>405 ppm: all assays above
